# Laboratory results: patent US20040176317A1, “Functionalised maltosyl fluoride as glycosyl donor in the chemo-enzymatic preparation of ratio of oligo-or polysaccharides” (priority 2001, published 2004)
# Test: Storage stability of the lyophilized fluoride
# Type: physicochemical
# Details: for stability of the fluoride: at −18° C. in the lyophilized form
# Method: This fluoride is stable at −18° C. in the lyophilized form.
SMILES,first decomposition compound,stability of the fluoride
"OCC1O[C@H](O[C@@H]2C(CO)O[C@H](F)C(O)C2O)C(O)C(O)[C@@H]1OC1CCCCO1 (stereo partly drawn) [Example 1e, 4-0-tetrahydropyranyl-α-D-glucopyran-osyl-(1→4)-α-D-glucopyranosyl fluoride]",α-maltosyl fluoride,stable
"OC[C@H]1O[C@H](F)[C@H](O)[C@@H](O)[C@@H]1O[C@H]1O[C@H](CBr)[C@@H](OC2CCCCO2)[C@H](O)[C@H]1O (stereo partly drawn) [Example 4d, 6-bromo-6-deoxy-4-O-tetrahydro-pyranyl-α-D-glucopyranosyl-(1→4)-α-D-glucopyranosyl fluoride]",–,stable
